PMC4698017 (Science (New York, N.Y.), 2015)
Where a chain is given by its changes, count along the chain named.

Legend:
Sestrin2-GATOR2 complex = Sestrin2-GATOR2 complex (Homo sapiens, UniProt P58004); test: disruption of immunopurified Sestrin2-GATOR2 complex, immunoblot; format: binding; conditions: 300 µM amino acid
Sestrin1 (two isoforms) = target: T1, Sestrin1 (two isoforms) (Homo sapiens, UniProt Q9Y6P5); test: [3H]Leucine binding, FLAG immunoprecipitate on beads; conditions: labelled compound
T1 sequence (Q9Y6P5 1-492): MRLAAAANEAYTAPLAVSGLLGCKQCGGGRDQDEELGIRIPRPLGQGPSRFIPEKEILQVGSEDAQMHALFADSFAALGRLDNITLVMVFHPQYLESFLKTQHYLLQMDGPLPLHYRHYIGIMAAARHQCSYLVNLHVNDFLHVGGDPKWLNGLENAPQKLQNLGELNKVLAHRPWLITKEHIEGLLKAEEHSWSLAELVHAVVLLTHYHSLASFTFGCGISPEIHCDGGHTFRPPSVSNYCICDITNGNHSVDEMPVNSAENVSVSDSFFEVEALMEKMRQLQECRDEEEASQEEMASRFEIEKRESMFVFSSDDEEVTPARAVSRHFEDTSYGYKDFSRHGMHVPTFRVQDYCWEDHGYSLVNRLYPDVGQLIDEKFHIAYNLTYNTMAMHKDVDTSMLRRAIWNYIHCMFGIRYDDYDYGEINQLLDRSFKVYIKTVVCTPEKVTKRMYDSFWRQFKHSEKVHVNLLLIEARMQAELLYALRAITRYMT

Sestrin2 (FLAG-Sestrin2) [1] = target: T2, Sestrin2 (FLAG-Sestrin2) (Homo sapiens, UniProt P58004, E451A); test: as above; conditions: labelled compound
T2 sequence (P58004 1-480 E451A): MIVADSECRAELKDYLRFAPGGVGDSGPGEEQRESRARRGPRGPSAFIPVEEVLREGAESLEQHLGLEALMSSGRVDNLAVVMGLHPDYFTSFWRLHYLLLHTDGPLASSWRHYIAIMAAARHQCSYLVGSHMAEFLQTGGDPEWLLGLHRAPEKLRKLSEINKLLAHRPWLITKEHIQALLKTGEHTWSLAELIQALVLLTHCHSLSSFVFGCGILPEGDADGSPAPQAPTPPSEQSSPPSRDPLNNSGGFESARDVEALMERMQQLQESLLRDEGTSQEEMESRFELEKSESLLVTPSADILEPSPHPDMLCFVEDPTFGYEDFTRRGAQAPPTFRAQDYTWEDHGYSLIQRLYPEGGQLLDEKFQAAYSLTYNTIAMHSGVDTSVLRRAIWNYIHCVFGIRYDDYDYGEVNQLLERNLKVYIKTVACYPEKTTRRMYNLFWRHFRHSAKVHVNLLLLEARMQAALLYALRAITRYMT

Sestrin2 (FLAG-Sestrin2) [2] = target: T3, Sestrin2 (FLAG-Sestrin2) (Homo sapiens, UniProt P58004, L261A); test: as above; conditions: labelled compound
T3 sequence (P58004 1-480 L261A): T2 sequence (P58004 1-480 E451A) with L261A, A451E

Sestrin3 = target: T4, Sestrin3 (Homo sapiens, UniProt P58005); test: as above; conditions: labelled compound
T4 sequence (P58005 1-492): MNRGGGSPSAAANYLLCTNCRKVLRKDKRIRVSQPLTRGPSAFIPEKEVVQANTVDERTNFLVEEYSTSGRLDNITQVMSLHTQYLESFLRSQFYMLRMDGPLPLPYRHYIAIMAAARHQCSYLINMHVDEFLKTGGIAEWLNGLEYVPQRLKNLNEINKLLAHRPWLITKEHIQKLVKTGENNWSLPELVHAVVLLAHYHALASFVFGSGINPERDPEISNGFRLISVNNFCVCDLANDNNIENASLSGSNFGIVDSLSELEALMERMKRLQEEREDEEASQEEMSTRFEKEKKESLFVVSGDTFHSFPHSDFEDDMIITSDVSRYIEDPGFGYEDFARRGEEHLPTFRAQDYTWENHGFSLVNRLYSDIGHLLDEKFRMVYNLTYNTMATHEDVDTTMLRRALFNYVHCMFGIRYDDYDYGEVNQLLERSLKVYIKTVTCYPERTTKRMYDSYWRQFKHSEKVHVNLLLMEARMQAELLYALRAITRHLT

[3] = target: T5, His-MBP-Sestrin2 (bacterially-produced Sestrin2) (Homo sapiens, UniProt P58004); test: thermal shift assay, Sypro orange; format: binding; conditions: maximal shift
T5 sequence (P58004 1-480): T2 sequence (P58004 1-480 E451A) with A451E

Sestrin2 (FLAG-Sestrin2) [4] = target: T6, Sestrin2 (FLAG-Sestrin2) (Homo sapiens, UniProt P58004, S190W); test: [3H]Leucine binding, FLAG immunoprecipitate on beads; conditions: labelled compound
T6 sequence (P58004 1-480 S190W): T2 sequence (P58004 1-480 E451A) with S190W, A451E

Chain of Sestrin2-GATOR2 complex (P58004 whole entry, canonical isoform): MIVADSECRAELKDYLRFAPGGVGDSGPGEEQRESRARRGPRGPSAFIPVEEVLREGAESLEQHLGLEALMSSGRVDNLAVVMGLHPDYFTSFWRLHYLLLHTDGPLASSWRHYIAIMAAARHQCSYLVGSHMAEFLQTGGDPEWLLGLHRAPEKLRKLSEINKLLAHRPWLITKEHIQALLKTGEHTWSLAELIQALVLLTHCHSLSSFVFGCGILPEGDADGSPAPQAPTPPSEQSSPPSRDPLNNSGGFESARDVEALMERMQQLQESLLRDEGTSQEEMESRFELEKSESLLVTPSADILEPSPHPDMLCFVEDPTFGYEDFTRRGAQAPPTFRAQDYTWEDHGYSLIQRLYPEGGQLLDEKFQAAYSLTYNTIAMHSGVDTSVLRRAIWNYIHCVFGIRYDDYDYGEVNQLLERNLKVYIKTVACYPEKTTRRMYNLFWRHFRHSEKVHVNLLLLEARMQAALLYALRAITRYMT
Chain of Sestrin2-GATOR2 complex (Q96S15 whole entry partner, canonical isoform): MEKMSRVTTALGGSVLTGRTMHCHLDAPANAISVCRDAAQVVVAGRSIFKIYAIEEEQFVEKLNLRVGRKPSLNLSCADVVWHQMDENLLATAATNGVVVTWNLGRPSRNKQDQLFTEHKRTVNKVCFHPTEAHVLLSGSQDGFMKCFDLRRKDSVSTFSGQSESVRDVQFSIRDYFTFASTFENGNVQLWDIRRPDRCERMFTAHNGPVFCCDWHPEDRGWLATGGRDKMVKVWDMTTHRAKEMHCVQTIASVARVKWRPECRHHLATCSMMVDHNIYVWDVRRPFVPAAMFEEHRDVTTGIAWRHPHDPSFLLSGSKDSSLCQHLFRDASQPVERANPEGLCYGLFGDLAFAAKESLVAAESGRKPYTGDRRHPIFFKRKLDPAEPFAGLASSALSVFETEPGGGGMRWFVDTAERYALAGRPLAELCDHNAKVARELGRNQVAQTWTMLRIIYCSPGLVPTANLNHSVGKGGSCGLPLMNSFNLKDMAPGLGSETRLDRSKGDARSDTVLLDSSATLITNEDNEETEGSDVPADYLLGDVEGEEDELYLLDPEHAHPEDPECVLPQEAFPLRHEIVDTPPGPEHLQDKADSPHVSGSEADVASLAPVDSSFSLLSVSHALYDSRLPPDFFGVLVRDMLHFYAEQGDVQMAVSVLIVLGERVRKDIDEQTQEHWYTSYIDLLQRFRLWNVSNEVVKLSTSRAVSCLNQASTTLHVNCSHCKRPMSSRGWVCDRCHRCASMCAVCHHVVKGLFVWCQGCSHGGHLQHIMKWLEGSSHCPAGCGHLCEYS
Chain of Sestrin2-GATOR2 complex (Q9NXC5 whole entry partner, canonical isoform): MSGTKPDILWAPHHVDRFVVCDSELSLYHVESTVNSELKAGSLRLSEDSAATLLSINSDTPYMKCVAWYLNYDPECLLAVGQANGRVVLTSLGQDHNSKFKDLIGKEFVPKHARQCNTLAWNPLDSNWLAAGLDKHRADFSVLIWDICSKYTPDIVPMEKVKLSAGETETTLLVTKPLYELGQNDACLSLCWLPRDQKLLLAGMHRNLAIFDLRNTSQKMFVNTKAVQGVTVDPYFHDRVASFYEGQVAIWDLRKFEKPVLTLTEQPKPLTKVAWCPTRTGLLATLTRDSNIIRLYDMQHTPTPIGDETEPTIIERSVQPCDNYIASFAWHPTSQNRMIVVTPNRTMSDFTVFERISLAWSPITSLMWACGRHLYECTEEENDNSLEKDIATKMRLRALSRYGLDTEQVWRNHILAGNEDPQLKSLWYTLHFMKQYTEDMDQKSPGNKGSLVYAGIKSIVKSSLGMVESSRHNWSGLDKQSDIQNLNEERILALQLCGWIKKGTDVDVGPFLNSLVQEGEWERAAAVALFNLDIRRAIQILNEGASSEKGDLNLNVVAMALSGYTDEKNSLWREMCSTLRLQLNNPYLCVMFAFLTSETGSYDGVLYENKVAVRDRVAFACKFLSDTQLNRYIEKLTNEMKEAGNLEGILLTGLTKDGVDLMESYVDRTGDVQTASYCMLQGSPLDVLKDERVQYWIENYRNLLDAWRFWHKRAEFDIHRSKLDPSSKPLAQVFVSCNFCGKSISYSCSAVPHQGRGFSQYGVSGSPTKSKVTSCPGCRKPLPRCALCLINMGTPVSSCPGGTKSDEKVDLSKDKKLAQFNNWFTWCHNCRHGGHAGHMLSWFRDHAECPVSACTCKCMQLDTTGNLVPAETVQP
Chain of Sestrin2-GATOR2 complex (Q6PJI9 whole entry partner, canonical isoform): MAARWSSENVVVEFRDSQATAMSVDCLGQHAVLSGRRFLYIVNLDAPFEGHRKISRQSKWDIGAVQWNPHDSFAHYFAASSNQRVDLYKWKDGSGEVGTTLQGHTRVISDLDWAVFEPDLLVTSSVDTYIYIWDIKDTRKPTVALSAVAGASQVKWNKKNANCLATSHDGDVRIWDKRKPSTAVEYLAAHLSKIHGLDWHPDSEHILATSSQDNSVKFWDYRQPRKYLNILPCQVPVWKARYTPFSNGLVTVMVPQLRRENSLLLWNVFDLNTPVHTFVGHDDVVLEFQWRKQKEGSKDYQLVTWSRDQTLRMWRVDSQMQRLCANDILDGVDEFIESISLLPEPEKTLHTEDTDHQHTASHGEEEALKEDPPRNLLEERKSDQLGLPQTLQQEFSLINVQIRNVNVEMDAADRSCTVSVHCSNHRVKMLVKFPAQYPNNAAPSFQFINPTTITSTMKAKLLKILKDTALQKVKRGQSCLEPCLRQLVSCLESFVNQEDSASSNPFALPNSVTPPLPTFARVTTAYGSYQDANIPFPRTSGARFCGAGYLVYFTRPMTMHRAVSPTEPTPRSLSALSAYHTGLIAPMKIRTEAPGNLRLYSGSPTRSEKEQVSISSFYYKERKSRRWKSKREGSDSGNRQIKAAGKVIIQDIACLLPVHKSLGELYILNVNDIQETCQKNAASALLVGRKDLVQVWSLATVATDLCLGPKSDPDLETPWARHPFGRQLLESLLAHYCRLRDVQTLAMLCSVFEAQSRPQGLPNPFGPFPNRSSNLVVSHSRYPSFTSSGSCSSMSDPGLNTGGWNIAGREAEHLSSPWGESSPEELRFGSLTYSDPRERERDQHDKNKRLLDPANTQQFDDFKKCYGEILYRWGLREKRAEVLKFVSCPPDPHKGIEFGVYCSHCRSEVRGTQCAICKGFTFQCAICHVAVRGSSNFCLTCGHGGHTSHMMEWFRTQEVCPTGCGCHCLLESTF
Chain of Sestrin2-GATOR2 complex (Q96EE3 whole entry partner, canonical isoform): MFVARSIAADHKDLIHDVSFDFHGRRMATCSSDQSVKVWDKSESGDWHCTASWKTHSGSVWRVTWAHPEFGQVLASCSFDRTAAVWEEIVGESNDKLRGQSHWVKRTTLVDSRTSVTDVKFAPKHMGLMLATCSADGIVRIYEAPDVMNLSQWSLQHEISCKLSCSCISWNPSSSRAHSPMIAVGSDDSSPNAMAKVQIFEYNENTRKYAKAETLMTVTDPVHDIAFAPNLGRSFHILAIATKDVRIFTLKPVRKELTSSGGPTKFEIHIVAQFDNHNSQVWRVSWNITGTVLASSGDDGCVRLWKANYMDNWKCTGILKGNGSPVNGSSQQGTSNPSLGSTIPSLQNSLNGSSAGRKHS
Chain of Sestrin2-GATOR2 complex (P55735 2-322 partner): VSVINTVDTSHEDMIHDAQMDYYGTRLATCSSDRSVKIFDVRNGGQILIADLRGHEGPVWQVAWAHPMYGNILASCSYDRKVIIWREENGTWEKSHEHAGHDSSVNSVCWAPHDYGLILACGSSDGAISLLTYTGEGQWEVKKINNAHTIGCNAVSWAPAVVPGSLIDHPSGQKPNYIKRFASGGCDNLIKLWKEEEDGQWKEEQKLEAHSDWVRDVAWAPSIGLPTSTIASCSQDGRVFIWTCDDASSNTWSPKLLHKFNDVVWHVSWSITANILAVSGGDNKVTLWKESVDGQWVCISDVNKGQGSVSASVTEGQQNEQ

| Compound | disruption of immunopurified Sestrin2-GATOR2 complex, immunoblot (Sestrin2-GATOR2 complex) | [3H]Leucine binding, FLAG immunoprecipitate on beads (Sestrin1 (two isoforms)) | no appreciable binding (Sestrin2 (FLAG-Sestrin2) [1]) | no appreciable binding (Sestrin2 (FLAG-Sestrin2) [2]) | very weak binding (Sestrin3) | melting temperature shift (dTm) [3] | [3H]Leucine binding, FLAG immunoprecipitate on beads (Sestrin2 (FLAG-Sestrin2) [4]) |
| --- | --- | --- | --- | --- | --- | --- | --- |
| CC(C)[C@H](N)C(=O)O [valine] | methionine, isoleucine, and valine– had any effect on the Sestrin2-GATOR2 interaction in vitro |  |  |  |  |  |  |
| CC(C)C[C@H](N)C(=O)O [leucine] |  | Sestrin1 bound leucine to a similar extent as did Sestrin2 | L261A and E451A, which do not bind leucine to an appreciable degree | L261A and E451A, which do not bind leucine to an appreciable degree | Sestrin3 bound very weakly | up to 8.5 °C | Sestrin2 mutant (S190W) that still binds leucine |
